Data taken from US20090275583A1, “ANTIVIRAL COMPOUNDS AND USE THEREOF” (Myriad Genetics, Incorporated, priority 2006, published 2009).

How the values were obtained:
[1] = test system: HIV-1 laboratory strain, NL4-3; assay: MT-4 cytoprotection assay; type: cell-based; details: Human immunodeficiency virus 1, NL43, MT4, 96 h; MT-4 cells, four days incubation, WST-1 readout; read-out: MT4 EC50
How it was run: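 MT-4 cells mock- or batch-infected with NL4-3 (MOI 0.0005) for 2 h, washed, then cultured 4 days with increasing compound concentrations. Viability read by WST-1 tetrazolium reduction: cytoprotection in infected cells, toxicity in mock-infected cells.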

HIV-1NL4-3 = assay: P4-MAGI assay; type: cell-based; details: Human immunodeficiency virus 1, 24 h, P4 cells, 24 hour incubation, β-galactosidase expression; read-out: P4-MAGI IC50
How it was run: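 Cytotoxicity (TC50, 50% growth inhibition) came from WST-1 in uninfected cells. For antiviral activity, compound at rising concentrations was added immediately after HIV-1NL4-3 inoculation (MOI 1, DEAE-Dextran) of P4 cells, CD4+ HeLa cells expressing β-galactosidase from a minimal HIV-1 LTR upon infection.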

| Compound | EC50 [1] [nM] | IC50 (HIV-1NL4-3) [nM] |
| --- | --- | --- |
| C/C(=C/C#N)[C@@H]1CC[C@]2(C(=O)NCCc3cccc(C(=O)NCc4ccc(C(=O)O)cn4)c3)CC[C@]3(C)C(CCC4[C@@]5(C)CC[C@H](O)C(C)(C)C5CC[C@]43C)C12 (some centres unmarked) [Example 269] | 39 | 11.4 |
| CC(O)(CN1CCCC1)[C@@H]1CC[C@]2(C(=O)NCCc3cccc(C(=O)NCc4ccc(C(=O)O)cn4)c3)CC[C@]3(C)C(CCC4[C@@]5(C)CC[C@H](O)C(C)(C)C5CC[C@]43C)C12 (some centres unmarked) [Example 270] | 441 | 100 |
| CC1(C)C2CC[C@]3(C)C(CCC4C5[C@H]([C@@](C)(O)CO)CC[C@]5(C(=O)NCCc5cccc(C(=O)NCc6ccc(C(=O)O)cn6)c5)CC[C@]43C)[C@@]2(C)CC[C@@H]1O (some centres unmarked) [Example 271] | 1810 | 119 |
| C=C(C)[C@@H]1CC[C@]2(C(=O)NCCc3cccc(C(=O)NCc4ccc(C(=O)NCCc5cnc[nH]5)cn4)c3)CC[C@]3(C)C(CCC4[C@@]5(C)CC[C@H](O)C(C)(C)C5CC[C@]43C)C12 (some centres unmarked) [Example 272] | 12.4 | 3.1 |
| C=C(C)[C@@H]1CC[C@]2(C(=O)NCCc3ccc(C)c(C(=O)NCc4ccc(C(=O)O)cn4)c3)CC[C@]3(C)C(CCC4[C@@]5(C)CC[C@H](O)C(C)(C)C5CC[C@]43C)C12 (some centres unmarked) [Example 273] | 1860 | 127 |
| C=C(C)[C@@H]1CC[C@]2(C(=O)NCCc3ccc(C)c(C(=O)NCc4ccc(C(=O)O)cc4)c3)CC[C@]3(C)C(CCC4[C@@]5(C)CC[C@H](O)C(C)(C)C5CC[C@]43C)C12 (some centres unmarked) [Example 274] | 4320 | 84.5 |
| C=C(C)[C@@H]1CC[C@]2(C(=O)NCCc3cccc(C(=O)N[C@@H](C)c4cccc[n+]4[O-])c3)CC[C@]3(C)C(CCC4[C@@]5(C)CC[C@H](O)C(C)(C)C5CC[C@]43C)C12 (some centres unmarked) [Example 275] | 1000 | 180 |
